Reference: US11117900B2 (Vertex Pharmaceuticals Incorporated, priority 2012, dated 2021)

Test system: HCT116 colorectal cancer cells
Test: Cisplatin sensitization assay (96 h MTS cell viability);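 further: compound concentration needed to lower the IC50 of Cisplatin alone by a set fold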
Assay type: cell-based
Settings: Cisplatin sensitization value
How it was run: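 The MTS viability read, after 1 h with reagent, followed 96 h of co-treatment at 37° C. in 5% CO2. Both compound and cisplatin were titrated 2-fold from a 10 μM top final concentration in a complete concentration matrix on HCT116 cells. Scores +++/++/+ reflect cisplatin sensitization value ranges.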

Row | SMILES | Cisplatin Sensitization Assay
1 | Nc1nn2cc(Cl)cnc2c1C(=O)Nc1cnccc1O[C@H]1CCNC1 [I-O-76, (S)-2-amino-6-chloro-N-(4-(pyrrolidin-3-yloxy)pyridin-3-yl)pyrazolo[1,5-a]pyrimidine-3-carboxamide] | ++ (Compounds with a Cisplatin sensitization value >0.02 μM but <0.2 μM are marked with “++.”)
2 | Nc1nn2cc(F)cnc2c1C(=O)Nc1cncc(F)c1N1CCC(C(=O)N2CCC(N3CCCCC3)CC2)CC1 [I-G-60, N-(4-(4-([1,4′-bipiperidine]-1′-carbonyl)piperidin-1-yl)-5-fluoropyridin-3-yl)-2-amino-6-fluoropyrazolo[1,5-a]pyrimidine-3-carboxamide] | +++ (Compounds with a Cisplatin sensitization value of <0.02 μM are marked with “+++.”)
3 | Nc1nn2cc(F)cnc2c1C(=O)Nc1cncc(F)c1N1CCC(C(=O)N2CCNCC2)CC1 [I-G-12, 2-amino-6-fluoro-N-(5-fluoro-4-(4-(piperazine-1-carbonyl)piperidin-1-yl)pyridin-3-yl)pyrazolo[1,5-a]pyrimidine-3-carboxamide] | +++ (Compounds with a Cisplatin sensitization value of <0.02 μM are marked with “+++.”)
4 | Nc1nn2cc(Cl)cnc2c1C(=O)Nc1cnccc1O[C@H]1C[C@@]2(CCN2)C1 [I-O-79] | ++ (Compounds with a Cisplatin sensitization value >0.02 μM but <0.2 μM are marked with “++.”)
5 | Nc1nn2cc(F)cnc2c1C(=O)Nc1cnccc1C1CCN(S(=O)(=O)C2CC2)CC1 [I-C-47, 2-amino-N-(4-(1-(cyclopropylsulfonyl)piperidin-4-yl)pyridin-3-yl)-6-fluoropyrazolo[1,5-a]pyrimidine-3-carboxamide] | +++ (Compounds with a Cisplatin sensitization value of <0.02 μM are marked with “+++.”)
6 | Nc1nn2cc(Cl)cnc2c1C(=O)Nc1cnccc1Oc1cccnc1 [I-O-70, 2-amino-6-chloro-N-(4-(pyridin-3-yloxy)pyridin-3-yl)pyrazolo[1,5-a]pyrimidine-3-carboxamide] | +++ (Compounds with a Cisplatin sensitization value of <0.02 μM are marked with “+++.”)
7 | Nc1nn2cc(F)cnc2c1C(=O)Nc1cncc(F)c1N1CCC(C(=O)N2CCN(C3CC3)CC2)CC1 [I-G-13, 2-amino-N-(4-(4-(4-cyclopropylpiperazine-1-carbonyl)piperidin-1-yl)-5-fluoropyridin-3-yl)-6-fluoropyrazolo[1,5-a]pyrimidine-3-carboxamide] | +++ (Compounds with a Cisplatin sensitization value of <0.02 μM are marked with “+++.”)
8 | CN1CCN(CC2CCN(c3c(F)cncc3NC(=O)c3c(N)nn4cc(F)cnc34)CC2)C(=O)C1 [I-N-193, 2-amino-6-fluoro-N-(5-fluoro-4-(4-((4-methyl-2-oxopiperazin-1-yl)methyl)piperidin-1-yl)pyridin-3-yl)pyrazolo[1,5-a]pyrimidine-3-carboxamide] | +++ (Compounds with a Cisplatin sensitization value of <0.02 μM are marked with “+++.”)
9 | Cn1ccc(-c2ccncc2NC(=O)c2c(N)nn3cc(F)cnc23)n1 [I-C-68, 2-amino-6-fluoro-N-(4-(1-methyl-1H-pyrazol-3-yl)pyridin-3-yl)pyrazolo[1,5-a]pyrimidine-3-carboxamide] | + (Compounds with a Cisplatin sensitization value >0.2 μM but <5 μM are marked with “+.”)
10 | Cc1ccncc1NC(=O)c1c(N)nn2cc(F)cnc12 [I-C-4, 2-amino-6-fluoro-N-(4-methylpyridin-3-yl)pyrazolo[1,5-a]pyrimidine-3-carboxamide] | ++ (Compounds with a Cisplatin sensitization value >0.02 μM but <0.2 μM are marked with “++.”)
11 | Nc1nn2cc(F)cnc2c1C(=O)Nc1cnccc1OC1CCC(C(=O)O)CC1 (stereo not drawn) [I-O-8, 4-((3-(2-amino-6-fluoropyrazolo[1,5-a]pyrimidine-3-carboxamido)pyridin-4-yl)oxy)cyclohexanecarboxylic acid] | + (Compounds with a Cisplatin sensitization value >0.2 μM but <5 μM are marked with “+.”)
12 | Nc1nn2cc(F)cnc2c1C(=O)Nc1cncc(F)c1N1CCNCC1 [I-N-118, 2-amino-6-fluoro-N-(5-fluoro-4-(piperazin-1-yl)pyridin-3-yl)pyrazolo[1,5-a]pyrimidine-3-carboxamide] | +++ (Compounds with a Cisplatin sensitization value of <0.02 μM are marked with “+++.”)
13 | Nc1nn2cc(F)cnc2c1C(=O)Nc1cncc(Cl)c1N1CCC(O)C1 (stereo not drawn) [I-N-284, 2-amino-N-(5-chloro-4-(3-hydroxypyrrolidin-1-yl)pyridin-3-yl)-6-fluoropyrazolo[1,5-a]pyrimidine-3-carboxamide] | +++ (Compounds with a Cisplatin sensitization value of <0.02 μM are marked with “+++.”)
14 | N#CCc1cnc2c(C(=O)Nc3cnccc3N3CCCCCC3)c(N)nn2c1 [I-N-79, 2-amino-N-(4-(azepan-1-yl)pyridin-3-yl)-6-(cyanomethyl)pyrazolo[1,5-a]pyrimidine-3-carboxamide] | ++ (Compounds with a Cisplatin sensitization value >0.02 μM but <0.2 μM are marked with “++.”)
15 | CC(C)(O)CN1CCN(c2c(F)cncc2NC(=O)c2c(N)nn3cc(F)cnc23)CC1 [I-N-139, 2-amino-6-fluoro-N-(5-fluoro-4-(4-(2-hydroxy-2-methylpropyl)piperazin-1-yl)pyridin-3-yl)pyrazolo[1,5-a]pyrimidine-3-carboxamide] | +++ (Compounds with a Cisplatin sensitization value of <0.02 μM are marked with “+++.”)
16 | CN1CCC[C@@H]1C(=O)N1CCN(c2c(F)cncc2NC(=O)c2c(N)nn3cc(F)cnc23)CC1 [I-N-181, (R)-2-amino-6-fluoro-N-(5-fluoro-4-(4-(1-methylpyrrolidine-2-carbonyl)piperazin-1-yl)pyridin-3-yl)pyrazolo[1,5-a]pyrimidine-3-carboxamide] | +++ (Compounds with a Cisplatin sensitization value of <0.02 μM are marked with “+++.”)
17 | CN(C)CC(=O)N1CCN(c2c(F)cncc2NC(=O)c2c(N)nn3cc(F)cnc23)CC1 [I-N-153, 2-amino-N-(4-(4-(2-(dimethylamino)acetyl)piperazin-1-yl)-5-fluoropyridin-3-yl)-6-fluoropyrazolo[1,5-a]pyrimidine-3-carboxamide] | ++ (Compounds with a Cisplatin sensitization value >0.02 μM but <0.2 μM are marked with “++.”)
18 | COC1CCN(C2CCN(c3ccncc3NC(=O)c3c(N)nn4cc(Cl)cnc34)CC2)C1 (stereo not drawn) [I-N-95, 2-amino-6-chloro-N-(4-(4-(3-methoxypyrrolidin-1-yl)piperidin-1-yl)pyridin-3-yl)pyrazolo[1,5-a]pyrimidine-3-carboxamide] | ++ (Compounds with a Cisplatin sensitization value >0.02 μM but <0.2 μM are marked with “++.”)
19 | N#CCc1cnc2c(C(=O)Nc3cnccc3OC3CCOC3)c(N)nn2c1 (racemic) [I-O-37, (R,S)-2-amino-6-(cyanomethyl)-N-(4-((tetrahydrofuran-3-yl)oxy)pyridin-3-yl)pyrazolo[1,5-a]pyrimidine-3-carboxamide] | +++ (Compounds with a Cisplatin sensitization value of <0.02 μM are marked with “+++.”)
20 | CC(C)N1CCN(c2ccncc2NC(=O)c2c(N)nn3cc(Cl)cnc23)CC1 [I-N-39, 2-amino-6-chloro-N-(4-(4-isopropylpiperazin-1-yl)pyridin-3-yl)pyrazolo[1,5-a]pyrimidine-3-carboxamide] | ++ (Compounds with a Cisplatin sensitization value >0.02 μM but <0.2 μM are marked with “++.”)
21 | Nc1nn2cc(F)cnc2c1C(=O)Nc1cnccc1-c1ccc(C(=O)N2CCN(C3COC3)CC2)nc1 [I-C-52, 2-amino-6-fluoro-N-(6-(4-(oxetan-3-yl)piperazine-1-carbonyl)-[3,4′-bipyridin]-3′-yl)pyrazolo[1,5-a]pyrimidine-3-carboxamide] | ++ (Compounds with a Cisplatin sensitization value >0.02 μM but <0.2 μM are marked with “++.”)
22 | Nc1nn2cc(F)cnc2c1C(=O)Nc1cnccc1O[C@@H]1CN2CCC1CC2 [I-O-10, (S)-2-amino-6-fluoro-N-(4-(quinuclidin-3-yloxy)pyridin-3-yl)pyrazolo[1,5-a]pyrimidine-3-carboxamide] | +++ (Compounds with a Cisplatin sensitization value of <0.02 μM are marked with “+++.”)
23 | Cc1ncc(-c2ccncc2NC(=O)c2c(N)nn3cc(F)cnc23)n1C [I-C-77, 2-amino-N-(4-(1,2-dimethyl-1H-imidazol-5-yl)pyridin-3-yl)-6-fluoropyrazolo[1,5-a]pyrimidine-3-carboxamide] | +++ (Compounds with a Cisplatin sensitization value of <0.02 μM are marked with “+++.”)
24 | Nc1nn2cc(Cl)cnc2c1C(=O)Nc1cnccc1OC1CCCNC1 (stereo not drawn) [I-O-75, 2-amino-6-chloro-N-(4-(piperidin-3-yloxy)pyridin-3-yl)pyrazolo[1,5-a]pyrimidine-3-carboxamide] | ++ (Compounds with a Cisplatin sensitization value >0.02 μM but <0.2 μM are marked with “++.”)
25 | Nc1nn2cc(Cl)cnc2c1C(=O)Nc1cnccc1OCC(F)(F)F [I-O-59, 2-amino-6-chloro-N-(4-(2,2,2-trifluoroethoxy)pyridin-3-yl)pyrazolo[1,5-a]pyrimidine-3-carboxamide] | +++ (Compounds with a Cisplatin sensitization value of <0.02 μM are marked with “+++.”)
26 | Nc1nn2cc(F)cnc2c1C(=O)Nc1cncc(F)c1N1CCN2CCOC[C@H]2C1 [I-N-135, (R)-2-amino-6-fluoro-N-(5-fluoro-4-(hexahydropyrazino[2,1-c][1,4]oxazin-8(1H)-yl)pyridin-3-yl)pyrazolo[1,5-a]pyrimidine-3-carboxamide] | +++ (Compounds with a Cisplatin sensitization value of <0.02 μM are marked with “+++.”)
27 | CNC1CN(C(=O)C2CCN(c3c(F)cncc3NC(=O)c3c(N)nn4cc(F)cnc34)CC2)C1 [I-G-34, 2-amino-6-fluoro-N-(5-fluoro-4-(4-(3-(methylamino)azetidine-1-carbonyl)piperidin-1-yl)pyridin-3-yl)pyrazolo[1,5-a]pyrimidine-3-carboxamide] | +++ (Compounds with a Cisplatin sensitization value of <0.02 μM are marked with “+++.”)
